Source: US12540118B2, “Dendrene amide compound, bactericide and use thereof” (Jiangsu Flag Chemical Industry Co., Ltd., priority 2020, dated 2026)

How the values were obtained:
succinate dehydrogenase = target: T1, succinate dehydrogenase (Sus scrofa, UniProt A5GZW8+D0VWV4+Q007T0); assay: Enzyme activity assay, succinate dehydrogenase (DCIP reduction); assay type: biochemical, porcine; conditions: read-out: Inhibitors (10 μM, SQR)
T1 construct: isolated from porcine hearts; from tissue; host or cells: porcine heart
T1 sequence (Q0QF01 43-664 partner): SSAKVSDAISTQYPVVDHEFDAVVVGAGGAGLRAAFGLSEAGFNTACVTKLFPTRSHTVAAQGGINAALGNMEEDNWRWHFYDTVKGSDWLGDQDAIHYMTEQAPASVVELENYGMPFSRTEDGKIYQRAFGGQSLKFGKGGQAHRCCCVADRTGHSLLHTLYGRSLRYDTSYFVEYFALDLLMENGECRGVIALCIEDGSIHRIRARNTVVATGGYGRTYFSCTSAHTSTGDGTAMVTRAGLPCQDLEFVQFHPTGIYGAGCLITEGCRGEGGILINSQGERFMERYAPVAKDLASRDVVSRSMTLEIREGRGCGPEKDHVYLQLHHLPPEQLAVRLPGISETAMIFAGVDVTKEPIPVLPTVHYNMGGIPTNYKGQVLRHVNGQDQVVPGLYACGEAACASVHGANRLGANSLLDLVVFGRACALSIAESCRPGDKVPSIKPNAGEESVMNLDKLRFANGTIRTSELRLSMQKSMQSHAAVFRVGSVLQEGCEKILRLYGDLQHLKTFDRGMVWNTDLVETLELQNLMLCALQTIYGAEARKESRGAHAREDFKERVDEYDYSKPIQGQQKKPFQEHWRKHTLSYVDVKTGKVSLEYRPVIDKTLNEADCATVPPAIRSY
T1 sequence (Q007T0 29-280): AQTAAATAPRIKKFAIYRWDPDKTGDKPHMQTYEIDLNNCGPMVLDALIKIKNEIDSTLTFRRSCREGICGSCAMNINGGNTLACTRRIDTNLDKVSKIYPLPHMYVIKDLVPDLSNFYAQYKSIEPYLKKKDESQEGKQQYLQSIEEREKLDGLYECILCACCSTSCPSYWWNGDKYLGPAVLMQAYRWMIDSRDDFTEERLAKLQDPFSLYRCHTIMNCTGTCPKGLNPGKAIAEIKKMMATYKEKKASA
T1 sequence (D0VWV4 30-169): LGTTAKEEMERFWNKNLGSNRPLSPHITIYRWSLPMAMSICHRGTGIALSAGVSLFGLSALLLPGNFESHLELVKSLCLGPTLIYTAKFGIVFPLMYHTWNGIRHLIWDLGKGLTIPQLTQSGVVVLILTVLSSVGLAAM
T1 sequence (A5GZW8 57-159 limits assumed): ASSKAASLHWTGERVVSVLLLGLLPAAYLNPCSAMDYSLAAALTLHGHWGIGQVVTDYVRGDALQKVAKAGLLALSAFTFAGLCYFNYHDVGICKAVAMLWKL
Procedure, shortened: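 Porcine heart succinate dehydrogenase (2 nM) in 100 mM sodium phosphate pH 7.4, 0.3 mM EDTA, 20 mM sodium succinate and 53 μM DCIP at 23° C with stirring. DCIP reduction followed at 600 nm (ε 21 mM^−1 cm^−1); linear slope minus baseline gives initial rate.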

Erysiphe graminis = Erysiphe graminis potting method; assay type: in vivo; conditions: Blumeria graminis; 100 mg/L; read-out: Erysiphe graminis control rating
Description: The fungicidal activity of the control agents and target compounds are determined. The test and investigation method refers to SOP-SC-1116 Erysiphe graminis potting method in disinfectant rolls written by KANGZHUO and GUBAOGEN in “Standard operation specification for testing biological activity of pesticides”.

Sphaerotheca fuliginea = Sphaerotheca fuliginea potting method; assay type: in vivo; conditions: Podosphaera fuliginea; 100 mg/L; read-out: Sphaerotheca fuliginea control rating
Description: The fungicidal activity of the control agents and target compounds are determined. The test and investigation method refers to SOP-SC-1101 sphaerotheca fuliginea potting method in disinfectant rolls written by KANGZHUO and GUBAOGEN in “Standard operation specification for testing biological activity of pesticides”.

SMILES | inhibition at 10 µM (succinate dehydrogenase) | pest or weed control at 100 µg/mL (Erysiphe graminis) | pest or weed control at 100 µg/mL (Sphaerotheca fuliginea)
C=C(c1cccc(S(=O)(=O)CC)c1)C(C)N(C(=O)c1c(C(F)F)nn(C)c1F)C1CC1 (stereo not drawn) [Compound 108] | > 90% | 80 to 100% | 80 to 100%
C=C(c1ccc(OC)cc1)C(C)N(C(=O)c1c(C(F)F)nn(C)c1F)C1CC1 (stereo not drawn) [Compound 61] | > 90% | 80 to 100% | 80 to 100%
C=C(c1ccc(Cl)c(Cl)c1)C(C)N(C(=O)c1c(C(F)F)nn(C)c1F)C1CC1 (stereo not drawn) [Compound 65] | > 90% | 80 to 100% | 80 to 100%
C=C(CN(C(=O)c1c(C(F)F)nn(C)c1F)C1CC1)c1ccc(Br)cc1Br [Compound 28] | > 90% | 80 to 100% | 80 to 100%
C=C(c1ccccc1Cl)C(C)N(C(=O)c1c(C(F)F)nn(C)c1F)C1CC1 (stereo not drawn) [Compound 72] | > 90% | 80 to 100% | 80 to 100%
C=C(CN(C(=O)c1c(C(F)F)nn(C)c1F)C1CC1)c1cccc(C(F)(F)F)c1Cl [Compound 46] | > 90% | 80 to 100% | 80 to 100%
C=C(CN(C(=O)c1c(C(F)F)nn(C)c1F)C1CC1)c1ccc(F)cc1 [Compound 22] | > 90% | 80 to 100% | 80 to 100%
CC(C(=C(Cl)Cl)c1cc(Br)ccc1Br)N(C(=O)c1c(C(F)F)nn(C)c1F)C1CC1 (stereo not drawn) [Compound 188] | > 90% | 80 to 100% | 80 to 100%
C=C(c1cc(C)ccc1C)C(C)N(C(=O)c1c(C(F)F)nn(C)c1F)C1CC1 (stereo not drawn) [Compound 89] | > 90% | 80 to 100% | 80 to 100%
Cc1ccc(C(C)(C)C)cc1C(=C(Cl)Cl)C(C)N(C(=O)c1c(C(F)F)nn(C)c1F)C1CC1 (stereo not drawn) [Compound 200] | > 90% | 80 to 100% | 80 to 100%
C=C(CN(C(=O)c1c(C(F)F)nn(C)c1F)C1CC1)c1cc(F)ccc1F [Compound 24] | > 90% | 80 to 100% | 80 to 100%
Cc1ccc(C(CN(C(=O)c2c(C(F)F)nn(C)c2F)C2CC2)=C(Cl)Cl)cc1 [Compound 150] | > 90% | 80 to 100% | 80 to 100%
C=C(c1ccc(Br)cc1)C(C)N(C(=O)c1c(C(F)F)nn(C)c1F)C1CC1 (stereo not drawn) [Compound 66] | > 90% | 80 to 100% | 80 to 100%
Cc1ccccc1C(CN(C(=O)c1c(C(F)F)nn(C)c1F)C1CC1)=C(Cl)Cl [Compound 149] | > 90% | 80 to 100% | 80 to 100%
C=C(CN(C(=O)c1c(C(F)F)nn(C)c1F)C1CC1)c1ccccc1C [Compound 6] | > 90% | 80 to 100% | 80 to 100%
C=C(CN(C(=O)c1c(C(F)F)nn(C)c1F)C1CC1)c1ccc(S(=O)(=O)CC)cc1 [Compound 52] | > 90% | 80 to 100% | 80 to 100%
C=C(c1cc(Cl)ccc1F)C(C)N(C(=O)c1c(C(F)F)nn(C)c1F)C1CC1 (stereo not drawn) [Compound 99] | > 90% | 80 to 100% | 80 to 100%
CC(C(=C(Cl)Cl)c1ccc(Cl)c(Cl)c1)N(C(=O)c1c(C(F)F)nn(C)c1F)C1CC1 (stereo not drawn) [Compound 173] | > 90% | 80 to 100% | 80 to 100%
C=C(c1c(F)cccc1F)C(C)N(C(=O)c1c(C(F)F)nn(C)c1F)C1CC1 (stereo not drawn) [Compound 78] | > 90% | 80 to 100% | 80 to 100%
